Laboratory results as given in patent US11908550B2, “Method for determining different PBDEs derivatives from their response to activities of enoyl-ACP reductase” (Nanjing University, priority 2020, dated 2024).
“Also recorded” adds a separate entry of the source.

Each compound was assayed against T1, enoyl-ACP reductase (recombinant FabI) (Escherichia coli, UniProt P0AEK4) (assay: in vitro binding activity assay (FabI enzyme activity, oxidation rate of NADH to NAD+ at 340 nm)). Settings: PBDEs 0.014-10 μM incubated with 100 nM recombinant FabI on ice for 60 minutes.
T1 construct: His; made in house; host or cells: E. coli
T1 sequence (P0AEK4 whole entry): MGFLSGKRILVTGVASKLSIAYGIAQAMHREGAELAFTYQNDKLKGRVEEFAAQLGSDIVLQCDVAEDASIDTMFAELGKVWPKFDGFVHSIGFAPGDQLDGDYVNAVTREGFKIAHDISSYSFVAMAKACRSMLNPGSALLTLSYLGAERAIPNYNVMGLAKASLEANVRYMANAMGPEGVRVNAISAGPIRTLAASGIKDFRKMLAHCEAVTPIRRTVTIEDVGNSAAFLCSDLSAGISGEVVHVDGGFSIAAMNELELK
Format: biochemical, E. coli
Description: The in vitro binding activity assay was as follows: overexpression of His-labeled FabI in the E. coli lysate was prepared. When the bacterial optical density (OD600) reached 0.6, the expression was induced overnight with 1 mm IPTG at 16° C. Then, the bacteria were collected and washed once with PBS. The bacteria were lysed in the lysis buffer containing 500 mM NaCl, 10 mm Tris HCl and 0.1% NP-40 (pH=8.5). FabI was purified from the supernatant with Ni-NTA agarose (Qiagen) and centrifuged at 14000 g for 30 min. The resin containing Ni-NTA was transferred to a Poly-Prep column (Bio-Red) and equilibrated twice with washing buffer (50 mm PBS, pH 8.2, 300 mM NaCl and 10 mm imidazole). After incubation with FabI lysate at 4° C. for 30 minutes, the resin was washed twice with a washing buffer, and the FabI protein was eluted with a buffer containing 50 mm PBS, pH 8.2, 300 mM NaCl and 250 mm imidazole. 300 μM butyl coenzyme A was added and followed by adding the mixture of 100 nM recombinant FabI, 400 μM NADH and 40 μM NAD+. The oxidation rate of NADH to NAD+ was measured every 2 minutes with a microplate reader at 340 nm. In order to determine the inhibition ability of PBDEs derivatives to the FabI enzyme activity, PBDEs with different concentrations (0.014-10 μM) were incubated with 100 nM recombinant FabI on ice for 60 minutes, and then the oxidation rate of NADH to NAD+ was determined.
In the case of `COc1c(Br)cc(Br)c(Br)c1Oc1ccc(Br)cc1Br` [6MeOBDE90], the “in vitro measurement of the binding activity” value (“in vitro measurement” below) is reported as “No inhibition; also recorded: No inhibit”.
`COc1ccc(Oc2ccc(Br)cc2Br)c(Br)c1` [4MeOBDE17] was tested, and the “in vitro measurement” value was “No inhibition; also recorded: No inhibit”.
For `Oc1cc(Cl)ccc1Oc1ccc(Cl)cc1Cl` [TCS, Triclosan, reference compound], the “in vitro measurement” value was “Inhibit”.
In the case of `COc1cc(Br)c(Br)c(Br)c1Oc1ccc(Br)cc1Br` [6MeOBDE85], the “in vitro measurement” value is reported as “No inhibition; also recorded: No inhibit”.
For `COc1cc(Br)cc(Br)c1Oc1ccccc1Br` [6MeOBDE17], the “in vitro measurement” value was “No inhibition; also recorded: No inhibit”.
For `Oc1cc(Br)cc(Br)c1Oc1ccccc1Br` [6OHBDE17], the “in vitro measurement” value was “Inhibit”.
For `COc1cc(Oc2ccc(Br)cc2Br)c(Br)cc1Br` [5MeOBDE47], the “in vitro measurement” value was “No inhibition; also recorded: No inhibit”.
In the case of `COc1cc(Br)cc(Br)c1Oc1ccc(Br)cc1Br` [6MeOBDE47], the “in vitro measurement” value is reported as “No inhibition; also recorded: No inhibit”.
In the case of `Oc1c(Br)cc(Br)c(Br)c1Oc1ccc(Br)cc1Br` [6OHBDE90], the “in vitro measurement” value is reported as “Inhibit”.
With `Oc1c(Br)c(Br)c(Br)c(Br)c1Oc1ccc(Br)cc1Br` [6OHBDE137] the “in vitro measurement” value was “Inhibit”.
`Oc1cc(Br)cc(Br)c1Oc1ccc(Br)cc1Br` [6OHBDE47] was tested, and the “in vitro measurement” value was “Inhibit”.
In the case of `Oc1c(Oc2ccc(Br)cc2Br)cc(Br)c(Br)c1Br` [2OHBDE123], the “in vitro measurement” value is reported as “No inhibition; also recorded: No inhibit”.
`Oc1cc(Br)c(Oc2ccc(Br)cc2Br)cc1Br` [4OHBDE49] was tested, and the “in vitro measurement” value was “able to inhibit; also recorded: inhibition”.
